Assay results as given in US20180161459A1, “Methods of Screening for Drugs to Prevent Noise-Induced Hearing Loss” (Sound Pharmaceuticals Incorporated, priority 2015, published 2018).

How the values were obtained:
[1] = test system: human subjects; experiment: Calibrated sound challenge: temporary threshold shift (TTS) by serial pure tone audiometry, randomized double-blinded placebo-controlled Phase 2 study; format: in vivo
Description: (§1) A study was performed to evaluate the safety and efficacy of an orally delivered candidate composition in human subjects. The candidate composition ebselen (aka. SPI-1005) was evaluated for efficacy using the methods disclosed herein. Ebselen or placebo was administered in a randomized double-blinded study to subjects, who were then exposed to a calibrated sound or noise challenge. Post-sound exposure pure tone audiometry was compared with baseline (i.e., immediately pre-sound exposure) testing to determine group mean level hearing threshold shift changes between treated and placebo groups. The single center, randomized, double-blinded, placebo-controlled study enrolled 83 subjects, all between the ages of 18 and 31. All enrolled subjects ranged from having slight hearing loss (less than or equal to 25 dB HL) to normal hearing.
Each subject was instructed to avoid non-occupational sound exposure (e.g., concerts, firearms, fireworks, power tools) during the 24-hour period preceding baseline testing and throughout the duration of the study. Vital signs (i.e., heart rate, blood pressure, respirations, temperature) were within normal limits for each subject. Subjects had conventional audiologic assessments at baseline consisting of: (a) pure tone audiometry to confirm that subjects had symmetric hearing with air conduction thresholds no worse than 25 dB HL at frequencies between 0.25 to 8 kHz bilaterally, (b) no significant threshold asymmetry (i.e. greater than 15 dB) between any subject's ears at any tested frequency,(c) no significant air-bone gaps (i.e. greater than 10 dB). Bone conduction testing with masking as conducted at screening at 250, 500, 1000, 2000, or 4000 Hz if the air-conduction threshold was greater than 15 dB HL, and (d) Type A tympanograms bilaterally, defined as a range of −140 to +40 daPa based on the 90% range for adults. Subjects with pure tone audiometry hearing thresholds>25 dB HL at any tested frequency (250, 500, 1000, 2000, 3000, 4000, 6000, and 8000 Hz) for either ear were excluded from the study.
Ebselen, or 2-phenyl-1,2-benzisoselenazol-3 (2H)-one, was selected as a candidate composition. The ebselen formulation was a capsule containing 200 mg of ebselen and 150 mg of the excipients microcrystalline cellulose, sodium croscarmellose, and magnesium sterate. Each subject received ebselen at one of three dosages (either 200 mg, 400 mg, or 600 mg) or received a placebo, delivered orally twice daily for four days, beginning two days prior to exposure to a controlled sound and continuing on the day of and on the day following the exposure to the controlled sound. The study was randomized to assign each subject to a treatment or placebo group. All subjects took 3 capsules in the morning (AM) and 3 capsules in the evening (PM) (each capsule either contained 200 mg ebselen or placebo), ideally 12 hours apart.
On Day 3 of the ebselen treatment, subjects underwent audiometric testing immediately prior to sound-exposure to establish their baseline hearing levels. Subjects listened to a 100 dBA SPL sound exposure delivered via insert earphones from a Personal Music Player (PMP, specifically an iPod®) for 4 continuous hours. The sound exposure method was similar to that discussed in Le Prell, C. et al., Ear & Hearing 33:e44-e58, 2012, hereby incorporated by reference in its entirety. The music levels were measured using Bruel & Kjaer type 4157 artificial ear couplers. Subjects listened to sound from music playlists with a choice of rock or pop music. No changes in volume or duration of the sound exposure were permitted. At 15 minutes, 75 minutes, 135 minutes, 195 minutes, 24 hours, and 1 week after sound exposure, subjects were tested for pure tone audiometric thresholds. Serial pure tone audiometry determined the incidence (greater or equal to 10 dB HL), severity (dB HL) and duration (up to 1 week post sound exposure) of the TTS. Audiometric data was collected at 250, 500, 1000, 2000, 3000, 4000, 6000, and 8000 Hz. […]

[2] = test system: human subjects; experiment: Safety and tolerability of orally delivered ebselen in the Phase 2 study; format: in vivo; details: oral 200, 400 or 600 mg twice daily for four days; CBC, Chemistry-20, Chest X-ray
Description: as §1
Ebselen, or 2-phenyl-1,2-benzisoselenazol-3 (2H)-one, was selected as a candidate composition. […]
Side effects of the ebselen delivery were analyzed. Clinical signs and symptoms from physical exam were evaluated, such as shortness of breath, wheezing, coughing, hemoptysis, resting pulse oximetry, chest X-rays, and laboratory findings such as hematology, chemistry, and urinalysis. Exposure to ebselen was quantified from plasma by LC-MS/MS. […]

## O=c1c2ccccc2[se]n1-c1ccccc1 [ebselen, 2-phenyl-1,2-benzisoselenazol-3 (2H)-one]
[1]; 1.25, 2.25 and 3.25 hours post sound exposure, 400 mg dose group, ITT
  TTS at 4 kHz vs. placebo at later time points: significantly reduced
[1]; 15 minutes post 100 dBA SPL 4 h sound exposure, oral twice daily for four days, 600 mg dose most effective, ITT, placebo 60%
  TTS incidence (subjects with greater or equal to 10 dB HL shift in either ear): 20%
[1]; 15 minutes post sound exposure, 400 mg dose most effective, ITT
  TTS averaged across all tested frequencies, or mean across 3, 4, 6 kHz or 4, 6, 8 kHz: clinically relevant reductions
[1]; 15 minutes post sound exposure, oral twice daily for four days, 400 mg dose most effective, ITT, placebo 4.1
  TTS severity at 4 kHz: 1.3 dB HL
[1]; all ebselen treatment groups compared with placebo, FIG. 2
  Incidence of subjects that returned to baseline hearing within 24 hours: greater incidence of subjects that returned to baseline hearing within 24 hours
[1]; oral twice daily for four days, placebo 24 hrs
  TTS duration: 1.3 h
[2]
  Tolerability / drug-related adverse events: well-tolerated with no drug-related adverse events
